# Data from patent US10294202B2, “Pyrrolidinones as herbicides” (FMC Corporation, priority 2013, dated 2019).
# Key:
# wheat (winter wheat) = assay: Test C pre-/postemergence herbicide test; assay type: in vivo, Triticum aestivum
# From the text: (§1) Seeds of plant species selected from blackgrass (Alopecurus myosuroides), ryegrass, Italian (Italian ryegrass, Lolium multiflorum), wheat (winter wheat, Triticum aestivum), galium (catchweed bedstraw, Galium aparine), corn (Zea mays), crabgrass, large (large crabgrass, Digitaria sanguinalis), foxtail, giant (giant foxtail, Setaria faberii), johnsongrass (Sorghum halepense), lambsquarters (Chenopodium album), morningglory (Ipomoea coccinea), nutsedge, yellow (yellow nutsedge, Cyperus esculentus), pigweed (Amaranthus retroflexus), ragweed (common ragweed, Ambrosia elatior), soybean (Glycine max), barnyardgrass (Echinochloa crus-galli), oilseed rape (Brassica napus), waterhemp (common waterhemp, Amaranthus rudis), kochia (Kochia scoparia), oat, wild (wild oat, Avena fatua), surinam grass (Brachiaria decumbens), foxtail, green (green foxtail, Setaria viridis), goosegrass (Eleusine indica), bromegrass, downy (downy bromegrass, Bromus tectorum), nightshade (eastern black nightshade, Solanum ptycanthum), cocklebur (common cocklebur, Xanthium strumarium), cupgrass, woolly (woolly cupgrass, Eriochloa villosa), bermudagrass (Cynodon dactylon), sunflower, (common oilseed sunflower, Helianthus annuus), Russian thistle (Salsola kali) and velvetleaf (Abutilon theophrasti) were planted into a blend of loam soil and sand and treated preemergence with test chemicals formulated in a non-phytotoxic solvent mixture which included a surfactant. At the same time, plants selected from these crop and weed species and also barley (winter barley, Hordeum vulgare), […]), chickweed (common chickweed, Stellaria media), deadnettle (henbit deadnettle, Lamium amplexicaule), and canarygrass (littleseed canarygrass, Phalaris minor) were planted in pots containing Redi-Earth® planting medium (Scotts Company, 14111 Scottslawn Road, Marysville, Ohio 43041) comprising spaghnum peat moss, vermiculite, wetting agent and starter nutrients and treated with postemergence applications of test chemicals formulated in the same manner. Plants ranged in height from 2 to 18 cm (1- to 4-leaf stage) for postemergence treatments. Treated plants and controls were maintained in a greenhouse for 13 to 15 days, after which time all species were compared to controls and visually evaluated. Plant response ratings, summarized in Table C, are based on a scale of 0 to 100 where 0 is no effect and 100 is complete control. A dash (-) response means no test result.
# pigweed = assay: Test C pre-/postemergence herbicide test; assay type: in vivo, Amaranthus retroflexus
# From the text: as §1
# galium = assay: Test C pre-/postemergence herbicide test; assay type: in vivo, Galium aparine
# From the text: as §1
# wheat = assay: Test A pre-/postemergence herbicide test; assay type: in vivo, Triticum aestivum
# Procedure, shortened: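 Greenhouse pot test with pre- and postemergence application of surfactant-containing solvent formulations. Postemergence plants were 2–10 cm, one- to two-leaf stage. Response scored visually after ~10 days, 0 (no effect) to 100 (complete control).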
# sedge, umbrella = assay: Test C flooded paddy test; assay type: in vivo, Cyperus difformis; details: Flood
# Procedure, shortened: (§2)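 Plants grown to the 2-leaf stage; pots flooded to 3 cm above soil and compound applied directly into the paddy water, depth kept throughout. Greenhouse 13 to 15 days, then visual rating vs untreated controls on 0–100 scale (0 no effect, 100 complete control); dash means no result.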
# foxtail, giant = assay: Test C pre-/postemergence herbicide test; assay type: in vivo, Setaria faberii
# From the text: as §1
# rice = assay: Test C flooded paddy test; assay type: in vivo, Oryza sativa; details: Flood
# Procedure, shortened: as §2
# [1] = Preemergence, 31 g ai/ha, scale 0 to 100, 0 is no effect and 100 is complete control
# [2] = Preemergence, 62 g ai/ha, scale 0 to 100 (0 no effect, 100 complete control)
# [3] = Preemergence, 125 g ai/ha, scale 0 to 100 (0 no effect, 100 complete control)
# [4] = Preemergence, 16 g ai/ha, scale 0 to 100
# [5] = 125 g ai/ha, scale of 0 to 100 where 0 is no effect and 100 is complete control, 13 to 15 days
# [6] = Postemergence, 500 g ai/ha, 0 to 100 scale (0 no effect, 100 complete control)
# [7] = 31 g ai/ha, scale of 0 to 100 where 0 is no effect and 100 is complete control, 13 to 15 days
# [8] = 62 g ai/ha, scale of 0 to 100 where 0 is no effect and 100 is complete control, 13 to 15 days
# [9] = Postemergence, 8 g ai/ha, scale 0 to 100 (0 no effect, 100 complete control)
# [10] = Postemergence, 16 g ai/ha, scale 0 to 100 (0 no effect, 100 complete control)
# [11] = Postemergence, 31 g ai/ha, scale 0 to 100 (0 no effect, 100 complete control)
# [12] = Postemergence, 62 g ai/ha, scale 0 (no effect) to 100 (complete control)
# [13] = Preemergence, 8 g ai/ha, scale 0 to 100
# [14] = 250 g ai/ha, scale of 0 to 100 where 0 is no effect and 100 is complete control, 13 to 15 days
smiles,measurement,setting,value
O=C1NCC(c2cccc(C(F)(F)F)c2)C1C(=O)Nc1ccccc1Cl (racemic) [Compound 189],Wheat plant response rating,wheat (winter wheat); [1],0
same,Wheat plant response rating,wheat (winter wheat); [2],0
same,"Plant response rating, Wheat",wheat (winter wheat); [3],0
same,"Plant response rating, Wheat",wheat (winter wheat); [4],0
same,Pigweed plant response rating,pigweed; [1],0
same,Pigweed plant response rating,pigweed; [2],0
same,"Plant response rating, Pigweed",pigweed; [3],0
same,"Plant response rating, Pigweed",pigweed; [4],0
same,Galium plant response rating,galium; [1],0
same,Galium plant response rating,galium; [2],0
same,"Plant response rating, Galium",galium; [3],80
same,"Plant response rating, Galium",galium; [4],0
same,"Plant response rating, Wheat","wheat; 125 g ai/ha, visual rating, 0 to 100 scale, 0 no effect, 100 complete control, approximately 10 days, preemergence",0
same,"Plant response rating, Wheat","wheat; Postemergence, 125 g ai/ha, 0 to 100 scale, 0 is no effect, 100 is complete control",0
same,"Wheat plant response rating (0 to 100 scale, 0 is no effect, 100 is complete control)","wheat; Postemergence, 500 g ai/ha",0
same,"Plant response rating, Wheat","wheat; preemergence, 500 g ai/ha, 0 to 100 scale, 0 is no effect and 100 is complete control",20
same,"Plant response rating, Sedge, Umbrella","sedge, umbrella; [5]",0
same,"Plant response rating, Sedge, Umbrella","sedge, umbrella; 250 g ai/ha, scale 0 to 100",0
same,"Plant response rating, Sedge, Umbrella","sedge, umbrella; 500 g ai/ha, scale 0 to 100",0
same,"Plant response rating, Sedge, Umbrella","sedge, umbrella; 1000 g ai/ha, scale 0 to 100",0
same,"Foxtail, Giant plant response rating","foxtail, giant; [1]",80
same,"Foxtail, Giant plant response rating","foxtail, giant; [2]",90
same,"Plant response rating, Foxtail, Giant","foxtail, giant; [3]",95
same,"Plant response rating, Foxtail, Giant","foxtail, giant; [4]",85
same,"Plant response rating, Rice",rice; [5],0
same,"Plant response rating, Rice","rice; 250 g ai/ha, scale 0 to 100",0
same,"Plant response rating, Rice","rice; 500 g ai/ha, scale 0 to 100",0
same,"Plant response rating, Rice","rice; 1000 g ai/ha, scale 0 to 100",0
O=C1NCC(c2ccc(F)c(F)c2)C1C(=O)Nc1cccc(F)c1 (racemic) [Compound 12],"Plant response rating, Wheat","wheat; Postemergence, 125 g ai/ha, 0 to 100 scale, 0 no effect, 100 complete control",0
same,"Plant response rating, Wheat",wheat; [6],20
same,Wheat plant response rating,"wheat; Preemergence, 125 g ai/ha, visual rating on 0 to 100 scale (0 no effect, 100 complete control)",0
same,"Plant response rating, Wheat","wheat; preemergence, 500 g ai/ha, 0 to 100 scale",20
same,"Plant response rating, Sedge, Umbrella","sedge, umbrella; [7]",0
same,"Plant response rating, Sedge, Umbrella","sedge, umbrella; [8]",0
same,"Plant response rating, Sedge, Umbrella","sedge, umbrella; [5]",0
same,"Plant response rating, Sedge, Umbrella","sedge, umbrella; 250 g ai/ha, scale 0 to 100",0
same,"Plant response rating, Rice",rice; [7],0
same,"Plant response rating, Rice",rice; [8],0
same,"Plant response rating, Rice",rice; [5],0
same,"Plant response rating, Rice","rice; 250 g ai/ha, scale 0 to 100",0
CN1CC(c2ccc(F)cc2)C(C(=O)Nc2cccc(F)c2F)C1=O (centres unmarked) [Compound 271],"Plant response rating, Wheat",wheat (winter wheat); [9],0
same,"Plant response rating, Wheat",wheat (winter wheat); [10],0
same,"Plant response rating, Wheat",wheat (winter wheat); [11],0
same,"Plant response rating, Wheat",wheat (winter wheat); [12],0
same,Wheat plant response rating,wheat (winter wheat); [1],0
same,Wheat plant response rating,wheat (winter wheat); [2],0
same,"Plant response rating, Wheat",wheat (winter wheat); [13],0
same,"Plant response rating, Wheat",wheat (winter wheat); [4],0
same,"Plant response rating, Pigweed",pigweed; [9],5
same,"Plant response rating, Pigweed",pigweed; [10],5
same,"Plant response rating, Pigweed",pigweed; [11],10
same,"Plant response rating, Pigweed",pigweed; [12],30
same,Pigweed plant response rating,pigweed; [1],0
same,Pigweed plant response rating,pigweed; [2],25
same,"Plant response rating, Pigweed",pigweed; [4],0
same,"Plant response rating, Galium",galium; [9],0
same,"Plant response rating, Galium",galium; [10],5
same,"Plant response rating, Galium",galium; [11],30
same,"Plant response rating, Galium",galium; [12],30
same,"Plant response rating, Wheat","wheat; Postemergence, 125 g ai/ha, visual rating on 0 to 100 scale (0 no effect, 100 complete control), approx. 10 days",0
same,"Plant response rating, Wheat",wheat; [6],80
same,"Plant response rating, Sedge, Umbrella","sedge, umbrella; [5]",0
same,"Plant response rating, Sedge, Umbrella","sedge, umbrella; [14]",0
same,"Plant response rating, Sedge, Umbrella","sedge, umbrella; 500 g ai/ha, scale 0 to 100",0
same,"Plant response rating, Sedge, Umbrella","sedge, umbrella; 1000 g ai/ha, scale 0 to 100",0
same,"Plant response rating, Foxtail, Giant","foxtail, giant; [9]",0
same,"Plant response rating, Foxtail, Giant","foxtail, giant; [10]",0
same,"Plant response rating, Foxtail, Giant","foxtail, giant; [11]",0
same,"Plant response rating, Foxtail, Giant","foxtail, giant; [12]",0
same,"Foxtail, Giant plant response rating","foxtail, giant; [1]",90
same,"Foxtail, Giant plant response rating","foxtail, giant; [2]",98
same,"Plant response rating, Foxtail, Giant","foxtail, giant; [13]",55
same,"Plant response rating, Foxtail, Giant","foxtail, giant; [4]",75
same,"Plant response rating, Rice",rice; [5],0
same,"Plant response rating, Rice",rice; [14],0
same,"Plant response rating, Rice","rice; 500 g ai/ha, scale 0 to 100",0
same,"Plant response rating, Rice","rice; 1000 g ai/ha, scale 0 to 100",0
